Measurements as given in PMC10451629, “Evaluation of the Effects of Heteroaryl Ethylene Molecules in Combination with Antibiotics: A Preliminary Study on Control Strains” (Antibiotics, 2023).
≈ marks a conversion by molar mass, not a printed value. Where “and” joins values, the source holds several entries; their conditions need not be identical. Equal entries are not always repeated. Where two headings read alike, the source gives them in different places.

Columns and labels:
[1] = test system: CaCo2 colon-rectal cancer cell line; set-up: method as in in-house dataset; Log(IC50) 48h: unit not given here; conditions: in-house dataset previously tested by the authors' groups, ref in-house dataset, cited from earlier work; for IC50: 48h
[2] = test system: K. pneumoniae ATCC 700603; assay: Broth microdilution MIC; type: cell-based, Klebsiella pneumoniae; conditions: Klebsiella pneumoniae, ATCC700603, K. pneumoniae ATCC 700603; substance alone; read-out: MIC
[3] = test system: S. aureus ATCC 12598; assay: Broth microdilution MIC; type: cell-based, Staphylococcus aureus; conditions: for MIC: Staphylococcus aureus
[4] = test system: S. aureus ATCC BAA-1556 USA300; assay: Broth microdilution MIC; type: cell-based, Staphylococcus aureus; conditions: for MIC: Staphylococcus aureus, S. aureus ATCC BAA-1556 USA300, substance alone
[5] = test system: A. baumannii ATCC 17978; assay: Broth microdilution MIC; type: cell-based; conditions: Acinetobacter baumannii, ATCC17978, substance alone
[6] = test system: S. aureus ATCC 29213; assay: Broth microdilution MIC; type: cell-based; conditions: Staphylococcus aureus
[7] = test system: P. aeruginosa ATCC 27853; assay: Broth microdilution MIC; type: cell-based, Pseudomonas aeruginosa; conditions: Pseudomonas aeruginosa, ATCC27853, P. aeruginosa ATCC 27853; substance alone; read-out: MIC
[8] = test system: E. coli ATCC 25922; assay: Broth microdilution MIC; type: cell-based; conditions: Escherichia coli, ATCC25922, substance alone, read-out: MIC
[9] = test system: S. enterica ATCC 14028; assay: Broth microdilution MIC; type: cell-based; conditions: Salmonella enterica, ATCC14028, substance alone
[10] = test system: CaCo-2 (ATCC HTB-37) colon–rectal cancer cell line; assay: MTT cytotoxicity assay on CaCo-2 cells; type: cell-based, human; conditions: for IC50: Homo sapiens, CaCo-2 cell line, MTT
Protocol: To fully assess the biological activity of the new molecules, they were tested at different concentrations on the CaCo-2 (ATCC HTB-37) colon–rectal cancer cell line. These human cancer cells were exposed to compound solutions ranging in concentration from 100 µM to 0.01 µM. As a reference compound for these assays, we used 5-Fluorouracil (5-FU), a pyrimidine analog from the antimetabolite family.
The MTT assay was also performed for the selected antibiotics to evaluate the effect of their combined treatment with PB4.
To evaluate the effect of the heteroaryl ethylene compounds and the antibiotics, an MTT ([3-(4,5-dimethylthiazol-2-yl)-2,5-diphenyltetrazolium bromide]) assay was performed as previously described. […] Both concentrations were also tested in combination with PB4 0.2 µM. All antibiotics were provided by Thermo Scientific^TM Oxoid^TM, Basingstoke, UK. Twenty-four hours after plating, the cells were treated with 20 μL of each solution. Untreated cells were used as controls. […] The IC50 values were calculated by nonlinear regression analysis using GraphPad Prism 6.0 software.

[11] = test system: E. faecalis ATCC 29212; assay: Broth microdilution MIC; type: cell-based, Enterococcus faecalis; conditions: for MIC: Enterococcus faecalis
[12] = test system: all tested strains; assay: Broth microdilution MIC, summary over all tested strains; type: cell-based; conditions: all tested bacterial strains; antibiotic + PB4
[13] = test system: S. aureus ATCC29213; conditions: QSAR dataset; cited from earlier work
[14] = ATCC12598, S. aureus ATCC 12598, substance alone, read-out: MIC
[15] = ATCC29213, S. aureus ATCC 29213, substance alone, read-out: MIC
[16] = Caco-2, 24 h, 24 h of treatment, read-out: IC50 at 24 h
[17] = Caco-2, 48 h, 48 h of treatment, read-out: IC50 at 48 h
[18] = ATCC29212, E. faecalis ATCC 29212, substance alone, read-out: MIC

C[n+]1ccccc1/C=C/c1ccc(N(c2ccccc2)c2ccccc2)cc1 [GC VII 47]
IC50 [1]: 1000 nM
Log(IC50) 48h [1]: 0

C[n+]1c(/C=C/c2ccc3ccccc3c2)cccc1/C=C/c1ccc2ccccc2c1 [GC-VII-39]
MIC [2]: ≥ 128 µg/mL and ≥ 244 µM
MIC [3, 14]: 32 µg/mL and 60.9 µM
MIC [4]: > 128 µg/mL and > 244 µM
MIC [5]: ≥ 128 µg/mL and ≥ 244 µM
MIC [6, 15]: 128 µg/mL and 244 µM
MIC [7]: ≥ 128 µg/mL and ≥ 244 µM
MIC [8]: ≥ 128 µg/mL
MIC [9]: ≥ 128 µg/mL and ≥ 244 µM
IC50 [10, 16]: 230 nM
IC50 [10, 17]: 180 nM
MIC [11, 18]: 16 µg/mL and 30.4 µM

CN(C)c1ccc(/C=C/C=C/c2cccc[n+]2C)cc1 [GF I 25]
IC50 [1]: 10000 nM
Log(IC50) 48h [1]: 1

Cn1c(/C=C/c2ccncc2)ccc1/C=C/c1cc[n+](C)cc1 [GF I 30]
IC50 [1]: 50000 nM
Log(IC50) 48h [1]: 1.70

Cn1c(/C=C/C2=C(C#N)C(=C(C#N)C#N)OC2(C)C)ccc1/C=C/c1cc[n+](C)cc1 [GF I 32]
IC50 [1]: 32000 nM
Log(IC50) 48h [1]: 1.51

CC(=O)NC[C@H]1CN(c2ccc(N3CCOCC3)c(F)c2)C(=O)O1 [Linezolid, linezolid, reference compound]
MIC [3, 14]: 4 µg/mL (≈ 11.9 µM)
MIC reduction in combination with PB4 [12]: no significant MIC reductions
MIC [4]: 2 µg/mL (≈ 5.93 µM)
MIC [6, 15]: 4 µg/mL (≈ 11.9 µM)
MIC [11, 18]: 4 µg/mL (≈ 11.9 µM)

CCCCN(CCCC)c1ccc(-c2ccc(/C=C/c3ccc4ccccc4[n+]3C)s2)s1 [PB2]
MIC [13]: 4 µg/mL

CN(C)c1ccc(/C=C/c2cccc(/C=C/c3ccc(N(C)C)cc3)[n+]2C)cc1 [PB4]
MIC [2]: 64 µg/mL and 125 µM
Reduction of PB4 MIC in combination with GC-VI-70 ([3]; S. aureus ATCC 12598): 2 logs
MIC of PB4 + GC-VI-70 combination ([3]; S. aureus ATCC 12598, PB4 fixed at its MIC for the strain, GC-VI-70 128 to 0.125 mg/L): 0.06 µg/mL
MIC [3, 14]: 0.25 µg/mL and 0.49 µM
MIC [4]: ≤ 0.125 µg/mL and ≤ 0.24 µM
MIC [13]: 0.25 µg/mL
MIC [5]: ≤ 0.125 µg/mL and ≤ 0.24 µM
MIC [6, 15]: 0.125 µg/mL and 0.24 µM
MIC [7]: > 128 µg/mL and > 250 µM
MIC [8]: 2 µg/mL and 3.91 µM
MIC [9]: 64 µg/mL and 125 µM
Percentage of cell growth, PB4 0.2 µM ([10]; CaCo-2, PB4 alone 0.2 µM, 48 h): 72.7%
IC50 [10, 16]: 310 nM
IC50 [10, 17]: 300 nM
Reduction of PB4 MIC in combination with GC-VI-70 ([11]; E. faecalis ATCC 29212): 2 logs
MIC of PB4 + GC-VI-70 combination ([11]; E. faecalis ATCC 29212, PB4 fixed at its MIC for the strain, GC-VI-70 128 to 0.125 mg/L): 0.06 µg/mL
MIC [11, 18]: 0.5 µg/mL and 0.98 µM

C[n+]1ccc(/C=C/c2ccc(-c3cc(Cl)ccc3Cl)o2)cc1 [PB6]
MIC [13]: 4 µg/mL

CC[n+]1ccc2c(c1)CCC/C2=C\c1ccc(-c2ccc(Cl)cc2)o1 [PB7]
MIC [13]: 4 µg/mL

CCCCN(CCCC)c1ccc(-c2ccc(/C=C3\CCCc4c[n+](CC)ccc43)s2)s1 [PB8]
MIC [13]: 2 µg/mL

CO[C@H]1/C=C/O[C@@]2(C)Oc3c(C)c(O)c4c(O)c(c(/C=N/N5CCN(C)CC5)c(O)c4c3C2=O)NC(=O)/C(C)=C\C=C\[C@H](C)[C@H](O)[C@@H](C)[C@@H](O)[C@@H](C)[C@H](OC(C)=O)[C@@H]1C [Rifampin, rifampin, reference compound]
MIC ([3]; ATCC12598): 0.125 µg/mL (≈ 0.152 µM)
Reduction of antibiotic MIC by PB4 ([4]; S. aureus USA 300, antibiotic + PB4 vs antibiotic alone): 4 -fold log reduction
MIC [4]: 0.125 µg/mL (≈ 0.152 µM)
MIC ([6]; ATCC29213): 0.125 µg/mL (≈ 0.152 µM)
Percentage of cell growth, antibiotic ([10]; CaCo-2, antibiotic alone at MIC for E. faecalis ATCC 29212, 24 h): 133.7%
Percentage of cell growth, antibiotic ([10]; CaCo-2, antibiotic alone at MIC for E. faecalis ATCC 29212, 48 h): 282.6%
Percentage of cell growth, antibiotic ([10]; CaCo-2, antibiotic alone at sub-MIC (half-MIC), 24 h): 146.6%
Percentage of cell growth, antibiotic ([10]; CaCo-2, antibiotic alone at sub-MIC (half-MIC), 48 h): 265.6%
Percentage of cell growth, antibiotic + PB4 0.2 µM ([10]; CaCo-2, antibiotic at MIC + PB4 0.2 µM, 24 h): 126.9%
Percentage of cell growth, antibiotic + PB4 0.2 µM ([10]; CaCo-2, antibiotic at MIC + PB4 0.2 µM, 48 h): 158.9%
Percentage of cell growth, antibiotic + PB4 0.2 µM ([10]; CaCo-2, antibiotic at sub-MIC + PB4 0.2 µM, 24 h): 130.6%
Percentage of cell growth, antibiotic + PB4 0.2 µM ([10]; CaCo-2, antibiotic at sub-MIC + PB4 0.2 µM, 48 h): 163.7%
MIC of antibiotic in combination with PB4 ([11]; E. faecalis ATCC 29212, PB4 at fixed 0.125 μg/mL (0.24 μM), a quarter of an MIC value): 0.006 µg/mL
Reduction of antibiotic MIC by PB4 ([11]; E. faecalis ATCC 29212, antibiotic + PB4 vs antibiotic alone): 2 -fold log reduction
MIC ([11]; ATCC29212): 0.125 µg/mL (≈ 0.152 µM)
MIC [11, 18]: 0.25 µg/mL (≈ 0.304 µM)

CCn1cc(/C=C/c2sc3ccccc3[n+]2CC)c2ccccc21 [SBT, reference compound]
MIC [13]: 1 µg/mL

CCn1cc(/C=C/c2ccc3ccccc3[n+]2CC)c2ccccc21 [SQL, reference compound]
MIC [13]: 4 µg/mL
